In patent publication EP4755885A1 (Shanghai Hansoh Biomedical Co., Ltd., priority 2023, dated 2025):

How the values were obtained:
human GLP-1 receptor [1] = biological target: T1, human GLP-1 receptor (Homo sapiens, UniProt P43220); test: cAMP production in cell line stably transformed with human GLP1 receptor, 30 min co-incubation (HTRF); type: cell-based; conditions: CHO-K1/GLP-1R/CRE-luc cells, stimulation for 0.5 h, read-out: EC50
T1 construct: expressed in transfected cells
Protocol: (§1) The purpose of this assay example is to test the ability of the compound to activate the human GLP-1 receptor on cell surface. The EC50 for stimulated cAMP production after activation characterizes the ability of the compound to activate the human GLP-1 receptor.
In this experiment, the compound and cells were co-incubated for 30 min.
(§2) Frozen cell line CHO-K1/GLP-1R/CRE-luc stably transformed with human GLP1 receptor was removed from a liquid nitrogen tank, and was placed in a 37°C water bath for rapid thawing. The cells were resuspended in DMEM/F12 medium, and after centrifugation, were washed once. The cells were resuspended in an experimental buffer, i.e., DMEM/F12 medium containing 0.1% casein. After centrifugation, cell density was adjusted using the experimental buffer. The cells were plated onto a 384-well plate at a density of 1500 cells/5 µL/well. Then, each well was added with 2.5 µL of IBMX working solution prepared with the buffer, the final concentration of IBMX being 0.5 mM, and 2.5 µL of a serially diluted compound sample (starting from […], 3-fold dilution, 12 concentrations). The plate was centrifuged at 1000 rpm for 1 min, and was stood for incubation at 37°C for 0.5 h. Determination was performed using the Cisbio cAMP - Gs Dynamic kit. cAMP-d2 and anti-cAMP-Eu3+-Cryptate were diluted 18-fold and 20-fold respectively with cAMP Lysis & Detection Buffer, and were respectively mixed homogeneously. Each well was added with 5 µL of diluted cAMP-d2 solution, and the plate was centrifuged at 1000 rpm for 1 min, and shaken for 30 seconds for homogeneous mixing. Then, each well was added with 5 µL of diluted anti-cAMP-Eu3+-Cryptate solution, and the plate was centrifuged at 1000 rpm for 1 min and was incubated in the dark at room temperature for 1 h. HTRF signals were read using the Biotek Synergy H1 microplate reader, the excitation wavelength being 320 nm and the emission wavelengths being 620 nm and 665 nm.
(§3) The signal-to-signal ratio was calculated (665 nm/620 nm * 10,000). Nonlinear fitting between the signal-to-signal ratio and the sample concentration was performed in GraphPad Prism 10 using a four-parameter equation to obtain the EC50 value.

[2] = Pharmacokinetic evaluation in mice, oral administration; type: in vivo, Balb/c mice; conditions: p.o. 5 mg/kg, plasma; for AUC(0-inf) / AUC(0-t) / Cmax / Tmax / MRT inf: mouse, in vivo, po; for MRT inf: read-out: MRT 0-∞
Protocol: Balb/c mice were used as test animals to study the pharmacokinetic behavior of the compound of the present invention in mice (plasma) at a dose of 5 mg/kg administered orally and 1 mg/kg administered intravenously.
Balb/c mice, 3 per group, male.
(§4) Preparation of drug for oral administration: 10%PEG400/10%PG/80% glycine buffer (100 mM glycine, 64 Mm NaOH, […]) buffer.
10 ml of PEG400, 10 ml of PG, and 80 ml of (100 mM glycine, 64 Mm NaOH, pH = 9) were measured into a 100 ml volumetric flask, vortexed, mixed homogeneously, and sonicated to obtain a clear solution.
Single PK: An example compound was weighed into a 4 mL glass bottle. The solution was added, and sonication was performed for 10 min to obtain a colorless clear solution having a concentration of 0.5 mg/mL.
The solution was added, and sonication was performed for 10 min to obtain a colorless clear solution having a concentration of 0.5 mg/mL.
Three Balb/c mice, male, respectively administered p.o. after fasting overnight, at a dose of 5 mg/kg and in an administration volume of 10 mL/kg.
The blood samples were placed in EDTA-K2 anticoagulant tubes and centrifuged at 6000 rpm at 4°C for 6 min to separate plasma, which was stored at -80°C. The mice were fed 4 h after administration.
(§5) • 1) 40 µL of a plasma sample was added with 160 µL of acetonitrile for precipitation, and after mixing, the mixture was centrifuged at 3500 × g for 5 to 20 min. • 2) The supernatant solution after treatment was taken for LC/MS/MS analysis of the concentration of the test compound. The LC/MS/MS analysis instrument was AB Sciex API 4000 Qtrap.
• Liquid phase condition: Shimadzu LC-20AD pump • Chromatographic column: Agilent ZORBAX XDB-C18 (50×2.1 mm, 3.5 µm) Mobile phase: Solution A was 0.1% formic acid aqueous solution, and Solution B was acetonitrile • Flow rate: 0.4 mL/min • Elution time: 0-4.0 min, the eluent was as follows:
Main pharmacokinetic parameters were calculated using WinNonlin 6.1.

human GLP-1 receptor [3] = biological target: T1, human GLP-1 receptor; test: cAMP production in cell line stably transformed with human GLP1 receptor, 2 h co-incubation (HTRF); type: cell-based; conditions: CHO-K1/GLP-1R/CRE-luc cells, stimulation for 2 h, read-out: EC50
Protocol: as §1
In this experiment, the compound and cells were co-incubated for 2 h.
as §2, with “for 2” for “for 0.5”
as §3

[4] = Pharmacokinetic evaluation in beagles, oral administration; type: in vivo; conditions: dog, po, p.o. 2 mg/kg, plasma; for Cmax: read-out: Cmax; for MRT inf: read-out: MRT 0-∞; for Tmax: read-out: tmax
Protocol: Beagles were used as test animals to study the pharmacokinetic behavior of the compound of the present invention, administered orally at a dose of 2 mg/kg, in beagles (plasma).
Beagles, 3 per group, male.
as §4
Single PK: The compound of the present invention was weighed into a 100 mL glass bottle, and the solution was added. The pH was first adjusted with 1 M NaOH until the compound dissolves to obtain a clear solution, and then the pH was readjusted to pH 9.0-9.5 with 1 M HCl. Sonication was performed for 10 min to obtain a colorless clear solution having a concentration of 0.4 mg/mL.
Three beagles, male, respectively administered p.o. after fasting overnight, at a dose of 2 mg/kg and in an administration volume of 5 mL/kg.
Blood collection: 0.3 mL of blood was collected from the forelimb vein of the beagles before administration and at 0.25, 0.5, 1, 2, 4, 6, 8, and 24 h after administration. The blood samples were placed in EDTA-K2 anticoagulant tubes and centrifuged at 6000 rpm at 4°C for 6 min to separate plasma, which was stored at -80°C. The beagles were fed 4 h after administration.
as §5
• Liquid phase condition: Shimadzu LC-20AD pump • Chromatographic column: Agilent ZORBAX XDB-C18 (50×2.1 mm, 3.5 µm) Mobile phase: Solution A was 0.1% formic acid aqueous solution, and Solution B was acetonitrile • Flow rate: 0.4 mL/min • Elution time: 0-4.0 min, the eluent was as follows: […]

[5] = not marked single PK (cassette PK)

T1 sequence (P43220 24-463): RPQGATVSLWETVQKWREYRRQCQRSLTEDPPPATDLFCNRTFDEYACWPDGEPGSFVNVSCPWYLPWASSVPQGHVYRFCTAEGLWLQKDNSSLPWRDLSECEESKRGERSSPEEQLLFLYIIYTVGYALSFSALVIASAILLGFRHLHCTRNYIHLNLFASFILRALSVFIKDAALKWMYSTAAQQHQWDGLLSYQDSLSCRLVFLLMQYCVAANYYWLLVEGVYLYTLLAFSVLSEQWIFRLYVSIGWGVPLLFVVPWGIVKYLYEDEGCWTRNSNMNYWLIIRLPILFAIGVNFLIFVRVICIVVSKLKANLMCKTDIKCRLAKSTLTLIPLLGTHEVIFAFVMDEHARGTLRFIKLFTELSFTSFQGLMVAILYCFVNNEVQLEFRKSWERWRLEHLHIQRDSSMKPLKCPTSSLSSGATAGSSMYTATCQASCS

Cc1cc(-n2nc3c(c2-n2ccn(-c4ccc(CC(=O)N(C)C)cc4F)c2=O)[C@H](C)N(C(=O)c2cc4cc([C@H]5CCOC(C)(C)C5)ccc4n2[C@@]2(c4noc(=O)[nH]4)C[C@@H]2C)CC3)cc(C)c1F [Example 7]
EC50 (human GLP-1 receptor [1]): 0.3 nM
AUC(0-inf) [2, 5]: 10800 ng·h/mL
AUC(0-t) [2, 5]: 10300 ng·h/mL
Cmax [2, 5]: 2970 ng/mL
Tmax [2, 5]: 0.5 h
MRT inf [2, 5]: 2.8 h
tl/2 [2, 5]: 1.6 h

Cc1cc(-n2nc3c(c2-n2ccn(-c4ccc5c(c4)OCc4nnc(C)n4-5)c2=O)[C@H](C)N(C(=O)c2cc4cc([C@H]5CCOC(C)(C)C5)ccc4n2[C@@]2(c4noc(=O)[nH]4)C[C@@H]2C)CC3)cc(C)c1F [Example 19]
EC50 (human GLP-1 receptor [1]): 0.88 nM

Cc1cc(-n2nc3c(c2-n2ccn(-c4cc5c6c(c4)OCC(=O)N6CCC5)c2=O)[C@H](C)N(C(=O)c2cc4cc([C@H]5CCOC(C)(C)C5)ccc4n2[C@@]2(c4noc(=O)[nH]4)C[C@@H]2C)CC3)cc(C)c1F [Example 41]
EC50 (human GLP-1 receptor [1]): 0.9 nM

[2H]C([2H])([2H])N1C(=O)C2CC2c2cc(-n3ccn(-c4c5c(nn4-c4cc(C)c(F)c(C)c4)CCN(C(=O)c4cc6cc([C@H]7CCOC(C)(C)C7)ccc6n4[C@@]4(c6noc(=O)[nH]6)C[C@@H]4C)[C@H]5C)c3=O)ccc21 (some centres unmarked) [Example 61]
EC50 (human GLP-1 receptor [1]): 1.39 nM

[2H]C([2H])([2H])N1C(=O)C2(CC2)c2cc(-n3ccn(-c4c5c(nn4-c4cc(C)c(C#N)c(C)c4)CCN(C(=O)c4cc6cc([C@H]7CCOC(C)(C)C7)ccc6n4[C@@]4(c6noc(=O)[nH]6)C[C@@H]4C)[C@H]5C)c3=O)ccc21 [Example 162]
EC50 (human GLP-1 receptor [1]): 0.25 nM
EC50 (human GLP-1 receptor [3]): 0.1 nM

[2H]C([2H])([2H])n1nc2c3c(c(-n4ccn(-c5c6c(nn5-c5cc(C)c(F)c(C)c5)CCN(C(=O)c5cc7cc([C@H]8CCOC(C)(C)C8)ccc7n5[C@@]5(c7noc(=O)[nH]7)C[C@@H]5COC5CC5)[C@H]6C)c4=O)ccc31)OCCC2 [Example 285, 3-((1S,2S)-2-(cyclopropyloxymethyl)-1-(5-((S)-2,2-dimethyltetrahydro-2H-pyran-4-yl)-2-((S)-2-(4-fluoro-3,5-dimethylphenyl)-4-methyl-3-(3-(2-(methyl-d3)-2,7,8,9-tetrahydrooxahepta[4,3,2-cd]indazol-5-yl)-2-carbonyl-2,3-dibydro-1H-imidazol-1-yl)-4,5,6,7-tetrahydro-2H-pyrazolo[4,3-c]pyridine-5-carbonyl)-1H-indol-1-yl)cyclopropyl)-1,2,4-oxadiazol-5(4H)-one]
EC50 (human GLP-1 receptor [1]): 0.71 nM
EC50 (human GLP-1 receptor [3]): 0.09 nM
AUC(0-inf) ([4]; male, beagle): 19400 ng·h/mL
half-life ([4]; male, beagle): 4.1 h
AUC(0-t) ([4]; male, beagle, read-out: AUC 0-t): 19200 ng·h/mL
Cmax ([4]; male, beagle): 3600 ng/mL
MRT inf ([4]; male, beagle): 5.3 h
Tmax ([4]; male, beagle): 1.5 h

[2H]C([2H])([2H])n1nc2c3c(c(-n4ccn(-c5c6c(nn5-c5cc(C)c(F)c(C)c5)CCN(C(=O)c5cc7cc([C@H]8CCOC(C)(C)C8)ccc7n5[C@@]5(c7noc(=O)[nH]7)C[C@@H]5C#C)[C@H]6C)c4=O)ccc31)OCCC2 [Example 287, 3-((1S,2R)-1-(5-((S)-2,2-dimethyltetrahydro-2H-pyran-4-yl)-2-((S)-2-(4-fluoro-3,5-dimethylphenyl)-4-methyl-3-(3-(2-(methyl-d3)-2,7,8,9-tetrahydrooxaheptano[4,3,2-cd]indazol-5-yl)-2-carbonyl-2,3-dihydro-1H-imidazol-1-yl)-4,5,6,7-tetrahydro-2H-pyrazolo[4,3-c]pyridine-5-carbonyl)-1H-indol-1-yl)-2-ethynylcyclopropyl)-1,2,4-oxadiazol-5(4H)-one]
EC50 (human GLP-1 receptor [1]): 0.9 nM
AUC(0-inf) ([2]; single PK): 28000 ng·h/mL
AUC(0-t) ([2]; single PK): 27900 ng·h/mL
Cmax ([2]; single PK): 5320 ng/mL
Tmax ([2]; single PK): 1 h
MRT inf ([2]; single PK): 4.2 h
tl/2 ([2]; single PK): 3.0 h
AUC(0-inf) [4]: 17200 ng·h/mL
AUC(0-t) at 24 h [4]: 17000 ng·h/mL
half-life [4]: 3.7 h
Cmax [4]: 1880 ng/mL
MRT inf [4]: 6.1 h
Tmax [4]: 2.3 h

Cc1cc(-n2nc3c(c2-n2ccn(-c4ccc5c(c4F)CCc4nnc(C)n4-5)c2=O)[C@H](C)N(C(=O)c2cc4cc([C@H]5CCOC(C)(C)C5)ccc4n2[C@@]2(c4noc(=O)[nH]4)C[C@@H]2C)CC3)cc(C)c1F [Example 339]
EC50 (human GLP-1 receptor [1]): 0.51 nM

Cc1cc(-n2nc3c(c2-n2ccn(-c4ccc5c(c4)CCc4nnnn4-5)c2=O)[C@H](C)N(C(=O)c2cc4cc([C@H]5CCOC(C)(C)C5)ccc4n2[C@@]2(c4noc(=O)[nH]4)C[C@@H]2C)CC3)cc(C)c1F [Example 342]
EC50 (human GLP-1 receptor [1]): 1.5 nM
